Data as given in DBAASP.
≈ marks a conversion by molar mass, not a printed value. Values belong to the compound of their own block, whether it stands above or below them.

What was measured:
Experiment in all cases: ≥ marks a high value that may be exact or a test limit, other limits are often not marked, values filed in µg/mL are converted to µM
[1] = tested on: Staphylococcus aureus ATCC 25923
[2] = tested on: Klebsiella pneumoniae ATCC 700603
[3] = tested on: Pseudomonas aeruginosa ATCC 27853
[4] = tested on: Escherichia coli ATCC 25726
[5] = tested on: Staphylococcus epidermidis RP62A/1
[6] = tested on: Staphylococcus epidermidis RP62A
[7] = tested on: Acinetobacter baumannii NM8
[8] = tested on: Stenotrophomonas maltophilia B32/4
[9] = tested on: Candida albicans ATCC 90028
[10] = tested on: Botrytis cinerea #8
[11] = tested on: Aspergillus nidulans biA1
[12] = tested on: Pyricularia grisea PR-9
[13] = tested on: Penicillium italicum PHI-1
[14] = tested on: Saccharomyces cerevisiae FY1679
[15] = tested on: Penicillium sp. PHI-8
[16] = tested on: Fusarium oxysporum CECT 2866
[17] = tested on: Escherichia coli DH5alpha
[18] = tested on: Bacillus subtilis CECT 498
[19] = tested on: Alternaria sp. PHI-44
[20] = tested on: Penicillium expansum PHI-65
[21] = tested on: Penicillium digitatum PHI-26
[22] = tested on: Staphylococcus aureus Cowan 1
[23] = tested on: Staphylococcus capitis 1
[24] = tested on: Candida albicans ATCC 10231
[25] = tested on: Yersinia pseudotuberculosis YPIII
[26] = tested on: Escherichia coli ATCC 25922
[27] = tested on: Bacillus megaterium Bm11
[28] = tested on: Pseudomonas aeruginosa ATCC 15422
[29] = tested on: Staphylococcus aureus ATCC 6538
[30] = tested on: Bacillus subtilis CCT 2576
[31] = tested on: Salmonella typhimurium CCARM 8009
[32] = tested on: Staphylococcus aureus CCARM 3114
[33] = tested on: Bacillus subtilis KCTC 1918
[34] = tested on: Staphylococcus aureus KCTC 1621
[35] = tested on: Staphylococcus aureus CCARM 3108
[36] = tested on: Staphylococcus aureus CCARM 3090
[37] = tested on: Escherichia coli KCTC 1682
[38] = tested on: Listeria monocytogenes KCTC 3710
[39] = tested on: Candida albicans CCARM 14001
[40] = tested on: Staphylococcus aureus CCARM 3126
[41] = tested on: Pseudomonas aeruginosa KCTC 1637
[42] = tested on: Salmonella typhimurium CCARM 8007
[43] = tested on: Salmonella typhimurium CCARM 8013
[44] = tested on: Staphylococcus aureus CCARM 3089
[45] = tested on: Escherichia coli CCARM 1238
[46] = tested on: Candida albicans KCTC 7270
[47] = tested on: Escherichia coli CCARM 1229
[48] = tested on: Salmonella typhimurium KCTC 1926
[49] = tested on: Candida albicans CCARM 14007
[50] = tested on: Staphylococcus aureus ATCC 43300
[51] = tested on: Escherichia coli O157
[52] = tested on: Staphylococcus aureus ATCC 29213
[53] = tested on: Salmonella typhimurium
[54] = tested on: Staphylococcus epidermidis ATCC 9709
[55] = tested on: Listeria monocytogenes
[56] = tested on: Escherichia coli ATCC 25404
[57] = tested on: Micrococcus luteus ATCC 10420

- MIC [1]: 64 µM (≈ 106 µg/mL)
- MIC [2]: 128 µM (≈ 212 µg/mL)
- MIC [3]: 128 µM (≈ 212 µg/mL)
- MIC [4]: ≥ 32 µM
- MIC [5]: 16 µM (≈ 26.5 µg/mL)
- MIC [6]: ≥ 32 µM
- MIC [7]: 16 µM (≈ 26.5 µg/mL)
- MIC [8]: ≥ 32 µM
- MIC [9]: ≥ 32 µM
Compound: CC[C@H](C)[C@H](N)C(=O)N[C@@H](CC(C)C)C(=O)N[C@@H](CCCCN)C(=O)N[C@@H](CCCCN)C(=O)N[C@@H](CC(C)C)C(=O)N[C@@H](CC(C)C)C(=O)N[C@@H](CO)C(=O)N[C@H](C(=O)N[C@@H](C)C(=O)N[C@@H](C)C(=O)NCC(=O)N[C@@H](CC(C)C)C(=O)N[C@@H](CC(C)C)C(=O)N[C@@H](CO)C(=O)N[C@@H](CC(N)=O)C(=O)N[C@@H](CC(C)C)C(N)=O)[C@@H](C)O [ILKKLLSTAAGLLSNL]

- MIC [10]: 16 µM (≈ 32.6 µg/mL)
- MIC [11]: 4 µM (≈ 8.14 µg/mL)
- MIC [12]: ≥ 32 µM
- MIC [13]: 4 µM (≈ 8.14 µg/mL)
- MIC [14]: ≥ 32 µM
- MIC [15]: 8 µM (≈ 16.3 µg/mL)
- MIC [16]: 8 µM (≈ 16.3 µg/mL)
- MIC [17]: 16 µM (≈ 32.6 µg/mL)
- MIC [18]: 16 µM (≈ 32.6 µg/mL)
- MIC [19]: 16 µM (≈ 32.6 µg/mL)
- MIC [20]: 8 µM (≈ 16.3 µg/mL)
- MIC [21]: 4 µM (≈ 8.14 µg/mL)
Compound: CSCC[C@H](NC(=O)[C@H](CCCN=C(N)N)NC(=O)[C@H](Cc1c[nH]c2ccccc12)NC(=O)[C@H](CCC(N)=O)NC(=O)[C@H](Cc1c[nH]c2ccccc12)NC(=O)[C@H](CCCN=C(N)N)NC(=O)[C@H](CCCN=C(N)N)NC(=O)[C@H](CS)NC(=O)[C@H](CCCCN)NC(=O)[C@H](Cc1ccccc1)NC(C)=O)C(=O)N[C@@H](CCCCN)C(=O)N[C@@H](CCCCN)C(=O)N[C@@H](CC(C)C)C(=O)NCC(=O)N[C@@H](C)C(N)=O [FKCRRWQWRMKKLGA]

- MIC [22]: ≥ 40 µM
- MIC [23]: ≥ 40 µM
- MIC [24]: 40 µM (≈ 54.2 µg/mL)
- MIC [25]: ≥ 40 µM
- MIC [26]: > 40 µM
- MIC [27]: 20 µM (≈ 27.1 µg/mL)
Compound: CC[C@H](C)[C@H](NC(=O)CNC(=O)[C@H](CO)NC(=O)[C@H](CC(C)C)NC(=O)[C@@H](NC(=O)[C@H](CCCN=C(N)N)NC(=O)CNC(=O)[C@@H](NC(=O)[C@H](CC(C)C)NC(=O)[C@@H]1CCCN1C(=O)[C@H](CC(C)C)NC(=O)[C@@H](N)Cc1ccccc1)[C@@H](C)CC)C(C)C)C(=O)N[C@@H](C)C(N)=O [FLPLIGRVLSGIA]

- MIC [28]: 28.3 µM (≈ 46.8 µg/mL)
- MIC [29]: 7.8 µM (≈ 12.9 µg/mL)
- MIC [26]: 5.8 µM (≈ 9.59 µg/mL)
- MIC [30]: 2.96 µM (≈ 4.9 µg/mL)
Compound: CC[C@H](C)[C@H](N)C(=O)N[C@@H](CC(N)=O)C(=O)N[C@@H](Cc1c[nH]c2ccccc12)C(=O)N[C@@H](CCCCN)C(=O)N[C@@H](CCCCN)C(=O)N[C@@H](CC(C)C)C(=O)N[C@@H](CC(C)C)C(=O)N[C@@H](CC(=O)O)C(=O)N[C@@H](C)C(=O)N[C@@H](C)C(=O)N[C@@H](CCCCN)C(=O)N[C@@H](CCC(N)=O)C(=O)N[C@H](C(=O)N[C@@H](CC(C)C)C(N)=O)[C@@H](C)CC [INWKKLLDAAKQIL]

- MIC [31]: ≥ 200 µM
- MIC [32]: ≥ 200 µM
- MIC [33]: ≥ 200 µM
- MIC [34]: ≥ 200 µM
- MIC [35]: ≥ 200 µM
- MIC [36]: ≥ 200 µM
- MIC [37]: ≥ 200 µM
- MIC [38]: ≥ 200 µM
- MIC [39]: ≥ 128 µM
- MIC [40]: ≥ 200 µM
- MIC [41]: ≥ 200 µM
- MIC [42]: ≥ 309 µM
- MIC [43]: ≥ 200 µM
- MIC [44]: ≥ 200 µM
- MIC [45]: ≥ 200 µM
- MIC [46]: ≥ 128 µM
- MIC [47]: ≥ 200 µM
- MIC [48]: ≥ 200 µM
- MIC [49]: ≥ 128 µM
Compound: NCCCC[C@H](NC(=O)[C@H](Cc1c[nH]c2ccccc12)NC(=O)[C@@H](N)CCCCN)C(=O)N[C@@H](Cc1c[nH]c2ccccc12)C(N)=O [KWKW]

- MIC [50]: 4 µM (≈ 5.72 µg/mL)
- MIC [51]: ≥ 64 µM
- MIC [52]: 4 µM (≈ 5.72 µg/mL)
- MIC [53]: ≥ 64 µM
- MIC [54]: 4 µM (≈ 5.72 µg/mL)
- MIC [55]: 8 µM (≈ 11.4 µg/mL)
- MIC [56]: ≥ 64 µM
- MIC [57]: 2 µM (≈ 2.86 µg/mL)
Compound: CC(C)C[C@H](NC(=O)[C@H](CC(C)C)NC(=O)[C@H](CCCCN)NC(=O)[C@H](CO)NC(=O)[C@H](CC(C)C)NC(=O)[C@H](C)NC(=O)[C@H](Cc1cnc[nH]1)NC(=O)[C@H](Cc1ccccc1)NC(=O)[C@H](CC(C)C)NC(=O)[C@H](C)NC(=O)CNC(=O)[C@H](CC(C)C)NC(=O)[C@@H](N)Cc1ccccc1)C(=O)O [FLGALFHALSKLL]
